Measurements reported in ChEMBL document CHEMBL1132756, “A new benzoangelicin with strong photobiological activity” (Bioorg Med Chem Lett, 2000).
Activity calls are given as the source filed them. The rule behind the calls is not given here.

Tests used:
Cavia porcellus [1] = assay: Compound was evaluated for the erythema formation; +++ means severe erythema with edema; format: functional, organism-based
Cavia porcellus [2] = species: Cavia porcellus; assay: Phototoxicity (10 mg/cm**2) was evaluated; highly toxic; format: functional, organism-based
HL-60 = assay: In vitro antiproliferative activity against human promyelocytic (HL-60) cells; format: functional, cell-based
HeLa = assay: In vitro antiproliferative activity against human cervix adenocarcinoma (HeLa) cells; format: functional, cell-based
Cavia porcellus [3] = species: Cavia porcellus; assay: Phototoxicity (50 mg cm e-2) was evaluated; No phototoxicity; format: functional, organism-based

Row | SMILES | Erythema formation (Cavia porcellus [1]) | Phototoxicity (Cavia porcellus [2]) | IC50 (HL-60) | IC50 (HeLa) | Phototoxicity (Cavia porcellus [3])
1 | COc1c2occc2cc2ccc(=O)oc12 [METHOXSALEN] | Active | Toxic | 5.4 µM | 10 µM | 
2 | COc1cc2oc3ccccc3c2c2oc(=O)cc(C)c12 |  |  | > 20 µM | > 20 µM | No phototoxicity
3 | Cc1cc(=O)oc2c1c(O)cc1oc3ccccc3c12 |  |  | 6.95 µM | > 20 µM | No phototoxicity
4 | Cc1cc(=O)oc2c1c(OCCCN(C)C)cc1oc3ccccc3c12 |  |  | 0.52 µM | 1.12 µM | No phototoxicity
